Experimental data taken from paper PMC10965847, “Expanding a peptide-covalent probe hybrid for PET imaging of S. aureus driven focal infections” (EJNMMI Radiopharmacy and Chemistry, 2024).
“Also recorded” adds a separate entry of the source.

Assays:
[1] = tested on: S. aureus, ATCC 25,923; assay: MIC by resazurin (alamar blue) reduction, broth dilution; assay type: cell-based; conditions: for growth inhibitory (bacteriostatic) / bactericidal effect on S. aureus: MIC and MBC assays, result in words
Procedure: (§1) The MICs were determined as the lowest concentration at which the conversion of the resazurin dye from blue to pink was absent. Conversely, the minimum bactericidal concentrations (MBC) were determined using the spot assay shown in Fig. 3a, where the absence of a bacterial lawn indicated the minimum required concentration for bacterial killing. […] Although UBI has been previously reported as bactericidal against S. aureus, the experimental conditions and strain utilized were different (Brouwer et al. [2006]).
A single colony of S. aureus, ATCC 25,923 (Microbiologics) was inoculated in Mueller Hinton broth (MHB) and incubated overnight at 120 rpm (revolutions per minute) and 37 °C. The experiment was carried out in a 96-microtiter plate using a broth dilution assay wherein all the peptides (ABI scientific) were diluted two-fold in each step-in media (M9 supplemented with 0.01% Tryptone). Cells were washed twice with media and diluted to a final concentration of 10^5 colony forming units (CFU) at each well. The final volume in each well was 200 µL. […] After 24 h, 30 µL of 0.75 mg/mL of resazurin dye (HiMedia Labs) was added in each of the wells and kept for incubation overnight at 37 °C with mild shaking. The next day, the 96 well plates as well as MHB-agar plates, were observed, and results were recorded. The experiment was carried out in triplicates. As mentioned earlier, S. aureus was cultured and washed with media to carry out a time-kill assay. Experiments were performed in microfuge tubes. ~10^6 cells were incubated with minimum inhibitory concentration (MIC) of UBI-APBA (2 µM) at a final volume of 500 µL adjusted with M9 media. Cells and UBI were incubated in media at 37 °C at 120 rpm. 50 µL aliquots from each reaction mixture were removed at required time intervals. These aliquots were plated on the MHB agar plates and incubated at 37 °C. The following day, colonies were counted to get CFU. Surviving fractions were plotted against time. Origin graphing and analysis 6.0 Pro software was used for plotting and analysis of data.

[2] = tested on: S. aureus, ATCC 25,923; assay: MBC by spot assay on MHB-agar; assay type: cell-based; conditions: 5 µL aliquots from MIC wells spotted on MHB-agar, overnight 37 °C, absence of bacterial lawn, triplicates
Procedure: as §1
A single colony of S. aureus, ATCC 25,923 (Microbiologics) was inoculated in Mueller Hinton broth (MHB) and incubated overnight at 120 rpm (revolutions per minute) and 37 °C. The experiment was carried out in a 96-microtiter plate using a broth dilution assay wherein all the peptides (ABI scientific) were diluted two-fold in each step-in media (M9 supplemented with 0.01% Tryptone). Cells were washed twice with media and diluted to a final concentration of 10^5 colony forming units (CFU) at each well. The final volume in each well was 200 µL. […] After 24 h, 30 µL of 0.75 mg/mL of resazurin dye (HiMedia Labs) was added in each of the wells and kept for incubation overnight at 37 °C with mild shaking. The next day, the 96 well plates as well as MHB-agar plates, were observed, and results were recorded. […] The following day, colonies were counted to get CFU. […]

[3] = tested on: HEK 293 cells; assay: Cell cytotoxicity (MTT) assay; conditions: HEK 293, MTT, 24 h, result in words
Procedure: Human embryonic kidney (HEK 293) cells were maintained in DMEM supplemented with 10% FBS and 1% antibiotic-antimycotic solution at 37 °C, 5% CO2 in humidified atmosphere.
Cell cytotoxicity was measured by performing 3-(4,5-dimethylthiazol-2-yl)-2,5-diphenyltetrazolium bromide) (MTT) assay. Briefly, 2000 cells/100 µL were seeded in a 96-well plate and kept overnight in incubator at 37 °C, 5% CO2. […] Melittin (17 µM) was used as a positive control for cytotoxicity assay. Following incubation, 10 µL of MTT was added to each well and after 3 h the supernatant was removed and 100 µL of dimethyl sulfoxide (DMSO) was added. After 1 h incubation, the absorbance was recorded at 570 nm. One-way ANOVA was used to establish the presence of significant groups, and Tukey’s test was subsequently utilized to conduct the comparison of means.

[4] = tested on: human erythrocytes; assay: Haemolysis assay; conditions: 30 min, 37 °C, result in words; for haemolysis: human erythrocytes 4% (v/v) in PBS, 8, 32 and 128 µM, absorbance 540 nm, duplicates; for haemolysis (positive controls): human erythrocytes 4% (v/v), melittin 17 µM (50 µg/mL), triton X-100 0.1% (v/v)
Procedure: The haemolysis assay is widely used to assess the therapeutic potential of a given AMP. AMPs that cause ruptured RBCs at their MICs naturally have low therapeutic potential.
Fresh human blood samples were obtained from healthy donors with the approval of the institutional medical ethics committee. Erythrocytes were isolated from heparinized human blood by centrifugation at 2000g for 5 min after washing three times with PBS at 4 °C. After removing the supernatant, the cell pellet was resuspended in 2 mL of PBS, and cells were diluted at 4% (v/v) for the haemolysis experiment. […] Samples were centrifuged at 2000g for 5 min, and the absorbance of supernatants was measured at 540 nm using a polarstar omega plate reader from BMG Labtech. Erythrocytes lysed with 0.1% triton X-100 and 50 µg/mL melittin were used as positive controls. Percentage haemolysis was calculated using the formula: Haemolysis (%) = (ASAMPLE − ANG)/(APC − ANG) × 100[ASAMPLE = Absorbance recorded for samples at 540 nm, ANG = Absorbance recorded for untreated (negative control) erythrocytes at 540 nm, APC = Absorbance recorded for Melittin treated (positive control) erythrocytes at 540 nm]. One-way ANOVA was used to establish the presence of significant groups, and Tukey’s test was subsequently utilized to conduct the comparison of means.

[5] = tested on: S. aureus membrane; assay: Membrane depolarization, DiOC2(3), flow cytometry; assay type: cell-based; conditions: 5 µM CCCP; DiOC2(3) 30 µM; result in words
Description: AMPs are reported to destroy bacterial cells by permeabilizing the membrane, followed by depolarization (Mitra et al. [2020]; Bhatt Mitra et al. [2020]). To explore if UBI-APBA utilized this strategy to adversely affect the survival of S. aureus, depolarization and permeabilization of S. aureus membrane was studied by flow cytometry. […] Furthermore, we investigated the permeabilization of the S. aureus membrane by assessing propidium iodide uptake (PI).
For the permeabilization study, peptide-treated cells were washed with saline followed by staining with DNA stain, propidium iodide (PI) at a final concentration of 45 µM (30 min at 37 °C and 120 rpm). Isopropanol treated cells were used as positive control. The % permeabilization was calculated after normalizing the values with respect to the untreated (0% permeabilization) and isopropanol treated cells (100% permeabilization).
Positive control for membrane depolarization studies was prepared by incubating bacteria under similar conditions with 5 µM CCCP.

[6] = in vitro; conditions: human, human serum
Procedure: The hydrophilicity of complexes is a predictor of fast renal clearance, which is desirable for diagnostic radiopharmaceuticals.
To assess the stability of the ^68Ga labeled peptide conjugates in PBS, 50 µL of complexes were added to 450 µL of PBS (1:10 dilution) and incubated at 37 °C for 3 h. Aliquots were taken at the end of incubation and analyzed by HPLC, as described previously. Similarly, to estimate the integrity of the ^68Ga complexes in serum, incubation was done with human serum at 1:10 dilution for 3 h at 37 °C. Samples were precipitated with 2% trichloroacetic acid (TCA), separated by centrifuging at 10,000g for 5 min, and analyzed by HPLC.

[7] = tested on: S. aureus; conditions: different experimental conditions and strain; ref Brouwer et al. [2006]; cited from earlier work
Procedure: The MICs were determined as the lowest concentration at which the conversion of the resazurin dye from blue to pink was absent. Conversely, the minimum bactericidal concentrations (MBC) were determined using the spot assay shown in Fig. 3a, where the absence of a bacterial lawn indicated the minimum required concent ...

[8] = In vitro stability of ^68Ga complexes in PBS; assay type: physicochemical; conditions: 1:10 dilution, 37 °C, 3 h, radio-HPLC
[9] = shake-flask octanol/water 1:1 (25 µL sample + 975 µL water + 1 mL octanol), vortexed, 5 min, centrifuged; NaI(Tl) counting; n = 4
Procedure: Partition coefficients for ^68Ga complexes were determined by mixing 25 µL of sample with 975 µL water and 1 mL octanol (octanol: water = 1:1). Thereafter, the mixture was vortexed and incubated for 5 min, followed by centrifugation for 5 min at 3000 rpm for separation of aqueous and organic phase. NaI (Tl) counter was used to measure the activity associated with both the phases and log P value [logarithm of the activity concentration in n-Octanol / activity concentration in the aqueous layer] was calculated.

## Acetyl-cysteine-2-acetyl boronic acid [AcCys-2-APBA]
[1]
  growth inhibitory (bacteriostatic) / bactericidal effect on S. aureus: no such effect
[1]; S. aureus ATCC 25,923, two-fold broth dilution in M9 + 0.01% Tryptone, 10^5 CFU per well, 200 µL, resazurin added after 24 h, overnight 37 °C, lowest concentration without blue-to-pink conversion, visual, triplicates
  MIC: > 32 µM
[2]
  MBC: > 32 µM

## CSCC[C@H](NC(=O)[C@H](CCCNC(=N)N)NC(=O)[C@H](CCCNC(=N)N)NC(=O)[C@H](CCCCN)NC(=O)[C@H](C)NC(=O)[C@H](CCCNC(=N)N)NC(=O)CNC(=O)[C@@H](N)[C@@H](C)O)C(=O)N[C@@H](CCC(N)=O)C(=O)N[C@@H](Cc1ccc(O)cc1)C(=O)N[C@@H](CC(N)=O)C(=O)N[C@@H](CCCNC(=N)N)C(=O)N[C@@H](CCCNC(=N)N)C(=O)NCC(=O)N[C@@H](CSCCCNC(=O)COc1ccc(C(C)=O)c(B(O)O)c1)C(N)=O [UBI-APBA]
[3]; 128 µM (64 × MIC of UBI-APBA), n = 3
  cell cytotoxicity: minimal cytotoxicity; also recorded: neither hemolytic nor cytotoxic
[4]
  haemolysis: neither hemolytic nor cytotoxic

## triton X-100
[4]
  haemolysis (positive controls): induced haemolysis

## melittin
[3]; melittin 17 µM
  cell cytotoxicity (positive control): cytotoxic
[4]
  haemolysis (positive controls): induced haemolysis

## N#CC(C#N)=NNc1cccc(Cl)c1 [CCCP, Carbonyl cyanide m-chlorophenyl hydrazone]
[5]
  depolarization of bacterial membrane (positive control): low red to green fluorescence intensity ratio

## CSCC[C@H](NC(=O)[C@H](CCCNC(=N)N)NC(=O)[C@H](CCCNC(=N)N)NC(=O)[C@H](CCCCN)NC(=O)[C@H](C)NC(=O)[C@H](CCCNC(=N)N)NC(=O)CNC(=O)[C@@H](NC(=O)CCC(C(=O)O)N1CCN(CC(=O)O)CCN(CC(=O)O)CC1)[C@@H](C)O)C(=O)N[C@@H](CCC(N)=O)C(=O)N[C@@H](Cc1ccc(O)cc1)C(=O)N[C@@H](CC(N)=O)C(=O)N[C@@H](CCCNC(=N)N)C(=O)N[C@@H](CCCNC(=N)N)C(=O)NCC(=O)N[C@@H](CSCCCNC(=O)COc1ccc(C(C)=O)c(B(O)O)c1)C(N)=O (stereo partly shown) [[^68Ga]Ga-UBI-APBA, metal not drawn]
[6]
  remaining at 3 h: 91%

## CSCC[C@H](NC(=O)[C@H](CCCNC(=N)N)NC(=O)[C@H](CCCNC(=N)N)NC(=O)[C@H](CCCCN)NC(=O)[C@H](C)NC(=O)[C@H](CCCNC(=N)N)NC(=O)CNC(=O)[C@@H](N)[C@@H](C)O)C(=O)N[C@@H](CCC(N)=O)C(=O)N[C@@H](Cc1ccc(O)cc1)C(=O)N[C@@H](CC(N)=O)C(=O)N[C@@H](CCCNC(=N)N)C(=O)N[C@@H](CCCNC(=N)N)C(=O)NCC(=O)N[C@@H](CS)C(N)=O [UBI]
[1]
  growth inhibitory (bacteriostatic) / bactericidal effect on S. aureus: no such effect
[7]
  activity against S. aureus as previously reported: bactericidal
[4]
  haemolysis: neither hemolytic nor cytotoxic

## CSCC[C@H](NC(=O)[C@H](CCCNC(=N)N)NC(=O)[C@H](CCCNC(=N)N)NC(=O)[C@H](CCCCN)NC(=O)[C@H](C)NC(=O)[C@H](CCCNC(=N)N)NC(=O)CNC(=O)[C@@H](NC(=O)CCC(C(=O)O)N1CCN(CC(=O)O)CCN(CC(=O)O)CC1)[C@@H](C)O)C(=O)N[C@@H](CCC(N)=O)C(=O)N[C@@H](Cc1ccc(O)cc1)C(=O)N[C@@H](CC(N)=O)C(=O)N[C@@H](CCCNC(=N)N)C(=O)N[C@@H](CCCNC(=N)N)C(=O)NCC(=O)N[C@@H](CS)C(N)=O (stereo partly shown) [[^68Ga]Ga-UBI, metal not drawn]
[6]
  remaining at 3 h: 97%
[8]
  RCP after incubation in PBS: 99%
[9]
  Partition coefficient, Log P: -3.8 ± 0.15
